The text below walks through data of ChEMBL document CHEMBL6182931, “Chemical Evolution of Aplithianine Class of Serine/Threonine Kinase Inhibitors” (J Med Chem, 2025).

A value given as a limit tells only on which side of the number the result lay.

The experiment can be described thus: Inhibition of DNAJB1-PKAcalpha (unknown origin) using biotinylated-peptide substrate CREB incubated for 45 mins in presence of ATP and cAMP by ELISA. Also noted: species or system Homo sapiens.
For `C[C@@H]1[C@H](N)CCCN1C(=O)C1=CN(c2ncnc3[nH]ccc23)CCS1`, the IC50 was 200 nM.

For `Cc1c[nH]c2nccc(N3C=C(C(=O)N4CCC[C@H](N)C4)SCC3)c12`, the IC50 worked out at 280 nM.

Consider `Cc1noc(C)c1C1=CN(c2ncnc3[nH]ccc23)CCS1`, for which the IC50 was above 10000 nM.

Take `O=C(N[C@H]1CCCNC1)C1=CN(c2ncnc3[nH]ccc23)CCS1`: the IC50 was 66 nM.

With `NC1(CNC(=O)C2=CN(c3ncnc4[nH]ccc34)CCS2)CCC1`, the IC50 came out at 180 nM.

Take `Cc1cc(N2C=C(c3ccnc4[nH]ccc34)SCC2)nc(N(C)C)n1`: the IC50 came to 3000 nM.

In the case of `Cc1c[nH]c2nccc(N3C=C(C(=O)N4CCC[C@@H](N)C4)SCC3)c12`, the IC50 was 37 nM.

On to `CN(CCN)C(=O)C1=CN(c2ncnc3[nH]ccc23)CCS1`, for which the IC50 was 370 nM.

For the molecule `FC(F)(F)c1cc(N2C=C(c3ccnc4[nH]ccc34)SCC2)ncn1`, the IC50 worked out at 2400 nM.

On to `C[C@H](CN)NC(=O)C1=CN(c2ncnc3[nH]ccc23)CCS1`, for which the IC50 is 530 nM.

For `Fc1cncnc1N1C=C(c2ccnc3[nH]ccc23)SCC1`, the IC50 was found to be 37 nM.

In the case of `NCCCCCCNC(=O)C1=CN(c2ncnc3[nH]ccc23)CCS1`, the IC50 is 2900 nM.

With `C[C@]1(N)CCCN(C(=O)C2=CN(c3ccnc4[nH]ccc34)CCS2)C1`, the IC50 worked out at 420 nM.

With `O=C(NC[C@H]1CCCCN1)C1=CN(c2ncnc3[nH]ccc23)CCS1`, the IC50 stood at 680 nM.

Turning to `CN[C@@H]1CCCN(C(=O)C2=CN(c3ncnc4[nH]cc(C)c34)CCS2)C1`, the half-inhibitory concentration (IC50) was found to be 50 nM.

`NCCNC(=O)C1=CN(c2ncnc3[nH]cnc23)CCS1`: the IC50 was 1300 nM.

As to `O=C(NCCNC(=O)c1ccccc1)C1=CN(c2ncnc3[nH]cnc23)CCS1`, the IC50 was above 10000 nM.

For `Cc1c[nH]c2ncnc(N3C=C(c4cnn(C)c4)SCC3)c12`, the IC50 worked out at 5500 nM.

With `NCCCCNC(=O)C1=CN(c2ncnc3[nH]ccc23)CCS1`, the IC50 stood at 210 nM.

Take `NCC1(NC(=O)C2=CN(c3ncnc4[nH]ccc34)CCS2)CCC1`: the IC50 is 170 nM.

As to `Cc1cc(N2C=C(c3ccnc4[nH]ccc34)SCC2)nc(C(C)(C)C)n1`, the IC50 is above 10000 nM.

With `N[C@H]1CCCN(C(=O)C2=CN(c3ccnc4[nH]ccc34)CCS2)C1`, the IC50 worked out at 68 nM.

As for `N[C@@H]1CCN(C(=O)C2=CN(c3ncnc4[nH]ccc34)CCS2)C1`, the IC50 was 98 nM.

Take `NCCCNC(=O)C1=CN(c2ncnc3[nH]ccc23)CCS1`: the IC50 came to 360 nM.

Regarding `O=C(C1=CN(c2ncnc3[nH]ccc23)CCS1)N1C[C@H]2CCCN[C@H]2C1`, the IC50 came out at 310 nM.

As for `Cc1c[nH]c2nccc(N3C=C(C(=O)N4CCC[C@@](C)(N)C4)SCC3)c12`, the IC50 is 43 nM.

Turning to `CN[C@H]1CCCN(C(=O)C2=CN(c3ccnc4[nH]cc(C)c34)CCS2)C1`, the IC50 was found to be 530 nM.

Regarding `N[C@@H]1c2ccccc2C[C@@H]1NC(=O)C1=CN(c2ncnc3[nH]ccc23)CCS1`, the IC50 was determined as 410 nM.

For `O=C(N[C@@H]1CCNC1)C1=CN(c2ncnc3[nH]ccc23)CCS1`, the IC50 was 380 nM.

With `NC[C@H](NC(=O)C1=CN(c2ncnc3[nH]ccc23)CCS1)c1ccccc1`, the 50% inhibitory concentration (IC50) is 110 nM.

Take `C[C@@H](N)CNC(=O)C1=CN(c2ncnc3[nH]ccc23)CCS1`: the IC50 came out at 180 nM.

With `C1=C(c2cc[nH]n2)SCCN1c1ncnc2[nH]ccc12`, the IC50 stood at 2000 nM.

Turning to `Cc1c[nH]c2ncnc(N3C=C(c4cnco4)SCC3)c12`, the IC50 is 1800 nM.

For the molecule `O=C(C1=CN(c2ncnc3[nH]ccc23)CCS1)N1C[C@@H]2CCCN[C@@H]2C1`, the IC50 is 1100 nM.

Turning to `O=C(NC[C@H]1CCCN1)C1=CN(c2ncnc3[nH]ccc23)CCS1`, the IC50 was 380 nM.

As to `NCCNC(=O)C1=CN(c2ccnc3[nH]ccc23)CCS1`, the IC50 was 160 nM.

As for `NCCCCCNC(=O)C1=CN(c2ncnc3[nH]ccc23)CCS1`, the IC50 worked out at 920 nM.

With `CCCc1cc2c(N3C=C(c4ccnc5[nH]ccc45)SCC3)ncnc2s1`, the IC50 is 1100 nM.

As to `CN(C[C@@H]1CCCCN1)C(=O)C1=CN(c2ncnc3[nH]ccc23)CCS1`, the IC50 stood at 1200 nM.

For the molecule `N[C@H]1CCCCN(C(=O)C2=CN(c3ncnc4[nH]ccc34)CCS2)C1`, the IC50 turned out to be 570 nM.

Regarding `CN[C@H]1CCCN(C(=O)C2=CN(c3ncnc4[nH]ccc34)CCS2)C1`, the IC50 is 310 nM.

As for `C[C@]1(N)CCCN(C(=O)C2=CN(c3ncnc4[nH]cnc34)CCS2)C1`, the IC50 was 2200 nM.

Take `Cc1noc(C)c1C1=CN(c2ncnc3[nH]cnc23)CCS1`: the IC50 is 6900 nM.

Turning to `C1=C(c2cccnc2)SCCN1c1ncnc2[nH]cnc12`, the IC50 was above 10000 nM.

As to `CC(C)(N)CNC(=O)C1=CN(c2ncnc3[nH]ccc23)CCS1`, the IC50 was found to be 380 nM.

`C[C@@]1(N)CCCN(C(=O)C2=CN(c3ncnc4[nH]cnc34)CCS2)C1`: the IC50 was determined as 62 nM.

Consider `O=C(C1=CN(c2ncnc3[nH]ccc23)CCS1)N1CCc2nc[nH]c2C1`, for which the IC50 was 580 nM.

On to `CN[C@@H]1CCCN(C(=O)C2=CN(c3ncnc4[nH]cnc34)CCS2)C1`, for which the IC50 is 260 nM.

For the molecule `CC(=O)NCCNC(=O)C1=CN(c2ncnc3[nH]cnc23)CCS1`, the IC50 was above 10000 nM.

With `Cc1c[nH]c2ncnc(N3C=C(c4ccnn4C)SCC3)c12`, the IC50 was above 10000 nM.

As for `CN[C@H]1CCCN(C(=O)C2=CN(c3ncnc4[nH]cc(C)c34)CCS2)C1`, the IC50 is 400 nM.

For `Cc1ncc(C2=CN(c3ncnc4[nH]cnc34)CCS2)o1`, the IC50 worked out at 5200 nM.

Turning to `O=C(C1=CN(c2ncnc3[nH]ccc23)CCS1)N1CCn2ccnc2C1`, the concentration for half-maximal inhibition (IC50) amounted to 230 nM.

`N[C@@H]1CCCN(C(=O)C2=CN(c3ncnc4[nH]ccc34)CCS2)C1`: the IC50 was found to be 8 nM.

In the case of `CC(C)(C)c1cc(N2C=C(c3ccnc4[nH]ccc34)SCC2)ncn1`, the IC50 was found to be 7900 nM.

With `C1=C(c2cc[nH]n2)SCCN1c1ncnc2[nH]cnc12`, the IC50 is above 10000 nM.

For `N[C@H]1CCCC[C@H]1NC(=O)C1=CN(c2ncnc3[nH]ccc23)CCS1`, the IC50 was determined as 2600 nM.

Take `C[C@H]1C[C@@H](N)CN(C(=O)C2=CN(c3ncnc4[nH]ccc34)CCS2)C1`: the IC50 is 6 nM.

As for `O=C(N[C@H]1CCNC1)C1=CN(c2ncnc3[nH]ccc23)CCS1`, the IC50 was 68 nM.

On to `O=C(N[C@H](c1ccccc1)[C@H]1CCCN1)C1=CN(c2ncnc3[nH]ccc23)CCS1`, for which the IC50 was 82 nM.

Regarding `Cc1cc(N2C=C(c3ccnc4[nH]ccc34)SCC2)nc(N2CCCCC2)n1`, the IC50 is above 10000 nM.

On to `Cc1noc(C)c1C1=CN(c2ncnc3[nH]cc(C)c23)CCS1`, for which the IC50 was above 10000 nM.

For the molecule `CN[C@@H]1CCCN(C(=O)C2=CN(c3ccnc4[nH]ccc34)CCS2)C1`, the half-maximal inhibitory concentration (IC50) came to 570 nM.

Turning to `N[C@H]1CCCN(C(=O)C2=CN(c3ncnc4[nH]ccc34)CCS2)C1`, the IC50 was determined as 81 nM.

As to `O=C(NC[C@@H]1CCCCN1)C1=CN(c2ncnc3[nH]ccc23)CCS1`, the IC50 amounted to 660 nM.

In the case of `O=C(NC[C@@H]1CCCN1)C1=CN(c2ncnc3[nH]ccc23)CCS1`, the IC50 came to 350 nM.

Turning to `Cc1ncoc1C1=CN(c2ncnc3[nH]ccc23)CCS1`, the IC50 was found to be 4500 nM.

As to `CN[C@H]1CCCN(C(=O)C2=CN(c3ccnc4[nH]ccc34)CCS2)C1`, the IC50 was 270 nM.

For `Cc1c[nH]c2ncnc(N3C=C(c4cccnc4)SCC3)c12`, the IC50 is above 10000 nM.
